PubChem BioAssay (NCI)
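Briefly, cells in 96-well plates were exposed to five compound concentrations for 48 h, and endpoints were estimated by linear interpolation. TGI denotes the concentration required for complete inhibition of growth.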

How the values were obtained:
Experiment in all cases: NCI anticancer screen, dose series, 48 h
NCI/ADR-RES ovarian = tested on: NCI/ADR-RES ovarian
K-562 leukemia = tested on: K-562 leukemia
NCI-H226 lung = tested on: NCI-H226 lung
HS 578T breast = tested on: HS 578T breast
SN12C renal = tested on: SN12C renal
NCI-H460 lung = tested on: NCI-H460 lung
CAKI-1 renal = tested on: CAKI-1 renal
BT-549 breast = tested on: BT-549 breast
HOP-62 NSCLC = tested on: HOP-62 NSCLC
T-47D breast = tested on: T-47D breast
MDA-N = tested on: MDA-N
ACHN renal = tested on: ACHN renal
UACC-257 melanoma = tested on: UACC-257 melanoma
OVCAR-3 ovarian = tested on: OVCAR-3 ovarian
SF-268 CNS = tested on: SF-268 CNS
HT29 colon = tested on: HT29 colon
MCF7 breast = tested on: MCF7 breast
A549 NSCLC = tested on: A549 NSCLC
SK-OV-3 ovarian = tested on: SK-OV-3 ovarian
NCI-H23 lung = tested on: NCI-H23 lung
A498 renal = tested on: A498 renal
PC-3 prostate = tested on: PC-3 prostate
SNB-75 CNS = tested on: SNB-75 CNS
LOX IMVI melanoma = tested on: LOX IMVI melanoma
SK-MEL-5 melanoma = tested on: SK-MEL-5 melanoma
TK-10 renal = tested on: TK-10 renal
RPMI-8226 leukemia = tested on: RPMI-8226 leukemia
KM12 colon = tested on: KM12 colon
MDA-MB-435 = tested on: MDA-MB-435
OVCAR-5 ovarian = tested on: OVCAR-5 ovarian
HCT-15 colon = tested on: HCT-15 colon
UACC-62 melanoma = tested on: UACC-62 melanoma
SW-620 colon = tested on: SW-620 colon
COLO 205 colon = tested on: COLO 205 colon
EKVX NSCLC = tested on: EKVX NSCLC
DU-145 prostate = tested on: DU-145 prostate
MOLT-4 leukemia = tested on: MOLT-4 leukemia
UO-31 renal = tested on: UO-31 renal
786-0 renal = tested on: 786-0 renal
HL-60(TB) leukemia = tested on: HL-60(TB) leukemia
SNB-19 CNS = tested on: SNB-19 CNS
SF-295 CNS = tested on: SF-295 CNS
OVCAR-4 ovarian = tested on: OVCAR-4 ovarian
OVCAR-8 ovarian = tested on: OVCAR-8 ovarian
HCT-116 colon = tested on: HCT-116 colon
SF-539 CNS = tested on: SF-539 CNS
NCI-H522 lung = tested on: NCI-H522 lung
IGROV1 ovarian = tested on: IGROV1 ovarian
MDA-MB-231 breast = tested on: MDA-MB-231 breast
M14 melanoma = tested on: M14 melanoma
SK-MEL-28 melanoma = tested on: SK-MEL-28 melanoma
SK-MEL-2 melanoma = tested on: SK-MEL-2 melanoma
CCRF-CEM leukemia = tested on: CCRF-CEM leukemia
SR leukemia = tested on: SR leukemia
U251 CNS = tested on: U251 CNS
HCC-2998 colon = tested on: HCC-2998 colon
HOP-92 NSCLC = tested on: HOP-92 NSCLC

Measured: TGI

Cn1c(=O)c2c(ncn2Cc2ccc(O)c([N+](=O)[O-])c2)n(C)c1=O
> 100 µM: NCI/ADR-RES ovarian | K-562 leukemia | NCI-H226 lung | HS 578T breast | SN12C renal | NCI-H460 lung | CAKI-1 renal | BT-549 breast | HOP-62 NSCLC | T-47D breast | MDA-N | ACHN renal | UACC-257 melanoma | OVCAR-3 ovarian | SF-268 CNS | HT29 colon | MCF7 breast | A549 NSCLC | SK-OV-3 ovarian | NCI-H23 lung | A498 renal | PC-3 prostate | SNB-75 CNS | LOX IMVI melanoma | SK-MEL-5 melanoma | TK-10 renal | RPMI-8226 leukemia | KM12 colon | MDA-MB-435 | OVCAR-5 ovarian | HCT-15 colon | UACC-62 melanoma | SW-620 colon | COLO 205 colon | EKVX NSCLC | DU-145 prostate | MOLT-4 leukemia | UO-31 renal | 786-0 renal | HL-60(TB) leukemia | SNB-19 CNS | SF-295 CNS | OVCAR-4 ovarian | OVCAR-8 ovarian | HCT-116 colon | SF-539 CNS | NCI-H522 lung | IGROV1 ovarian | MDA-MB-231 breast | M14 melanoma | SK-MEL-28 melanoma | SK-MEL-2 melanoma | CCRF-CEM leukemia | SR leukemia | U251 CNS

CC(O)(CCCCCl)c1nc2ccccc2s1 (centres undefined)
> 100 µM: NCI/ADR-RES ovarian | K-562 leukemia | NCI-H226 lung | HS 578T breast | SN12C renal | CAKI-1 renal | BT-549 breast | HOP-62 NSCLC | T-47D breast | MDA-N | ACHN renal | UACC-257 melanoma | OVCAR-3 ovarian | SF-268 CNS | HT29 colon | MCF7 breast | A549 NSCLC | SK-OV-3 ovarian | NCI-H23 lung | A498 renal | PC-3 prostate | SNB-75 CNS | LOX IMVI melanoma | SK-MEL-5 melanoma | TK-10 renal | RPMI-8226 leukemia | KM12 colon | MDA-MB-435 | OVCAR-5 ovarian | HCT-15 colon | UACC-62 melanoma | SW-620 colon | COLO 205 colon | EKVX NSCLC | DU-145 prostate | MOLT-4 leukemia | UO-31 renal | 786-0 renal | HL-60(TB) leukemia | SNB-19 CNS | SF-295 CNS | OVCAR-4 ovarian | OVCAR-8 ovarian | HCT-116 colon | SF-539 CNS | NCI-H522 lung | IGROV1 ovarian | MDA-MB-231 breast | M14 melanoma | SK-MEL-28 melanoma | SK-MEL-2 melanoma | CCRF-CEM leukemia | SR leukemia | U251 CNS

C=C1C/C(=C/C)C(=O)O[C@@H]2CCN3CC=C(COC(=O)[C@]1(C)O)[C@H]23
> 100 µM: NCI/ADR-RES ovarian | HCC-2998 colon | K-562 leukemia | NCI-H226 lung | HS 578T breast | NCI-H460 lung | CAKI-1 renal | BT-549 breast | HOP-62 NSCLC | T-47D breast | MDA-N | ACHN renal | UACC-257 melanoma | OVCAR-3 ovarian | SF-268 CNS | HT29 colon | MCF7 breast | A549 NSCLC | SK-OV-3 ovarian | NCI-H23 lung | A498 renal | PC-3 prostate | SNB-75 CNS | LOX IMVI melanoma | SK-MEL-5 melanoma | TK-10 renal | RPMI-8226 leukemia | KM12 colon | MDA-MB-435 | OVCAR-5 ovarian | HCT-15 colon | UACC-62 melanoma | SW-620 colon | COLO 205 colon | EKVX NSCLC | DU-145 prostate | UO-31 renal | 786-0 renal | HL-60(TB) leukemia | SNB-19 CNS | SF-295 CNS | OVCAR-4 ovarian | OVCAR-8 ovarian | HOP-92 NSCLC | HCT-116 colon | SF-539 CNS | NCI-H522 lung | IGROV1 ovarian | MDA-MB-231 breast | M14 melanoma | SK-MEL-28 melanoma | SK-MEL-2 melanoma | CCRF-CEM leukemia | SR leukemia | U251 CNS
